Test results published in publication PMC10671498, “Antiproliferative and Cytotoxic Properties of Propynoyl Betulin Derivatives against Human Ovarian Cancer Cells: In Vitro Studies” (International Journal of Molecular Sciences, 2023).
Read-outs that look alike come from different tables or passages of the source.

Experiments:
SK-OV-3 cells [1] = assay: SRB cell proliferation assay, SK-OV-3; type: cell-based, human; settings: for IC50: Homo sapiens; for concentration at which antiproliferative activity (decrease in the number of cells) was evident: SK-OV-3, SRB assay, 0.1–30 µM
Procedure: This study used ovarian cancer cell lines, which are part of the panel of cell lines used as part of the NCI-60 Human Cell Lines Screen program, characterized by overexpression of the c-erbB2/neu (HER2) receptor [62, 63]. The human ovarian cancer cell lines (SK-OV-3 and OVCAR-3) were purchased from the American Type Culture Collection (ATCC®, Manassas, Virginia, USA). SK-OV-3 cells (ATCC No. HTB-77™) were cultured in McCoy’s 5A medium containing D-glucose (3 g/L), L-glutamine (0.219 g/L), and sodium bicarbonate (2.2 g/L) supplemented with 10% fetal bovine serum, 10 mM HEPES (pH 7.3–7.5), 100 U/mL penicillin, and 100 μg/mL streptomycin (all from Sigma Aldrich).
(§1) Betulin 1 and its derivatives were dissolved in dimethyl sulfoxide (DMSO; Sigma Aldrich) as a 15 mM stock solution. Working solutions were prepared through the dilution of stock solutions with culture medium. The final DMSO concentration in culture media was adjusted to 0.2%. The effect of tested compounds on the proliferation of SK-OV-3 and OVCAR-3 cells was measured using the In Vitro Toxicology Assay Kit, Sulforhodamine B based (Sigma Aldrich). Cells were seeded in 96-well plates (Greiner Bio-One, Kremsmünster, Austria) at an initial density of 3 × 10^3 cells per well in 200 µL of culture medium. After 24 h of incubation, betulin 1 and its derivatives at a concentration range of 0.1 μM to 30 μM were added to the wells. Control cultures were treated with vehicle alone (0.2% DMSO). The incubation periods for cells with test compounds were 1 day, 3 days, and 5 days. After appropriate incubation periods, culture media were removed, and cells were fixed in 10% trichloroacetic acid solution for 60 min at 4 °C. After fixation, the TCA solution was removed, and the plates were washed three times with deionized water (300 μL/well) and dried. At the next step, cells were stained with 0.4% sulforhodamine B for 30 min. The excess dye was removed by washing three times with 1% (vol/vol) acetic acid. The protein-bound dye was dissolved in 200 μL 10 mM Tris base solution. Absorbance was measured at 570 nm and 690 nm (reference wavelength) using the MRX Revelation plate reader (Dynex Technologies, Chantilly, VA, USA).
(§2) GraphPad Prism 10.0.2 (GraphPad Software Inc., San Diego, CA, USA) software was used for calculations and the statistical analysis of the IC50 values (Table 1). IC50 was determined by using the “nonlinear regression” mode, and the “log(inhibitor) vs. normalised response—Variable slope” equation was chosen in GraphPad Prism software for calculations. The obtained data were normalized to run from 100% down to 0%, and logarithms of concentration were used. Graphs (Figure 2, Figure 3, Figure 4, Figure 5 and Figure 8, and Supplementary Figure S1) were also prepared using this software. In the case of the lack of normal distribution or homogeneity of variances, the remaining results were analyzed using a non-parametric Kruskal–Wallis test with multiple comparisons. Post hoc analysis was performed with the non-parametric equivalent of Tukey’s test. A p value of <0.05 was considered statistically significant. Otherwise, a one-way ANOVA followed by a Tukey’s post hoc test was applied. t-tests was used to perform pairwise comparisons between group means. Analysis was performed using Statistica 13.1 software (StatSoft, Tulsa, OK, USA).

OVCAR-3 cells [2] = assay: SRB cell proliferation assay, OVCAR-3; type: cell-based, human; settings: for IC50: Homo sapiens; for concentration at which antiproliferative activity (decrease in the number of cells) was evident: OVCAR-3, SRB assay, 0.1–30 µM
Procedure: OVCAR-3 cells (ATCC No. HTB-161™) were cultured in RPMI-1640 medium containing HEPES buffer (2.383 g/L), sodium bicarbonate (1.5 g/L), sodium pyruvate (0.11 g/L) supplemented with 20% fetal bovine serum, 10 µg/mL bovine insulin, 100 U/mL penicillin, and 100 μg/mL streptomycin (all from Sigma Aldrich).
as §1, §2

[3] = tested on: 18Co normal myofibroblasts; assay: SRB cell proliferation assay, 18Co normal myofibroblasts; type: cell-based
Procedure: Next, 18Co cells (ATCC No. CRL-1459™) were cultured in MEM medium containing HEPES buffer, 10% fetal bovine serum, 100 U/mL penicillin, and 100 μg/mL streptomycin (all from Sigma Aldrich).
as §1, §2

SK-OV-3 cells [4] = assay: DNA fragmentation assay (Cell Death Detection ELISA, cytoplasmic fraction), SK-OV-3; type: cell-based, human; settings: SK-OV-3, 24 h, 3, 10, 30 µM
Procedure: (§3) Fragmentation of genomic DNA was determined by means of the Cell Death Detection ELISAPLUS kit (Roche, Basel, Switzerland). This method rests on the immunoenzymatic detection of DNA–histone complexes in the cytoplasmic cell fraction or cell culture supernatants. Cells were plated and cultured in 96-well plates (Greiner Bio-One) at the initial density of 5 × 10^3 cells per well in 100 µL of culture medium. Cells were allowed to attach and grow for 1 day prior to the addition of test reagents. Then, the media were replaced with the working solutions (3 µM, 10 µM, 30 µM), and cells were exposed to compounds 2–6 for 24 h. In some cases, 5 µM cyclosporin A (CsA, an inhibitor of the mitochondrial permeability transition) was added to the cells 30 min before treatment with the betulin derivative. Subsequently, cells were incubated concomitantly with both compounds. After a 24 h incubation period, plates were centrifuged (200× g; 10 min), media were removed, and cells were lysed for 30 min at room temperature. At the next step, the lysates were again spun (200× g; 10 min), and 20 µL of supernatants (cytoplasmic fractions) was moved to the new 96-well streptavidin-coated plate. In one experiment, the presence of mono- and oligonucleosomes was determined in 20 µL samples of centrifuged culture supernatants (media) to detect the permeability of plasma membrane (considered as an indicator of cell necrosis). Then, the sandwich ELISA assay was fulfilled according to the manufacturer’s protocol. Absorbance was measured at 405 nm and 490 nm (reference wavelength), and the enrichment factor of the cytoplasmic (or supernatant) fraction in mono- and oligonucleosomes was calculated according to the formula: EF = absorbance of sample cells/absorbance of control cells.
(§4) A high EF index in the cytoplasmic fraction (resulting from DNA fragmentation while maintaining the tightness of cell membranes) is a typical indicator of the relatively early stage of apoptosis.

SK-OV-3 cells [5] = assay: TMRM analysis of mitochondrial membrane potential; type: cell-based, human; settings: SK-OV-3, 3 h, 30 µM
Procedure: Tetramethylrhodamine methyl ester (Sigma Aldrich) was used for the assessment of changes in the transmembrane potential of mitochondria. TMRM is a fluorescent cationic dye accumulating in mitochondria in a potential-dependent manner. Cell cultures were prepared as described above for acridine orange staining. Cells were exposed to test solutions for 3 h, and then TMRM was added (final concentration 100 nM) followed by incubation for 30 min in the CO2 incubator. Prior to observation, the plates were centrifuged (250× g, 5 min), and the medium was changed to PBS. The cells were analyzed under the Nikon Eclipse TS-100F microscope and photographed.

[6] = tested on: human melanoma cell line C32; parameters: method as in PMID 28100848; settings: C32, 3 μM; cited from earlier work
[7] = tested on: human melanoma cell line A2058; parameters: method as in PMID 28100848; settings: A2058, 3 μM; cited from earlier work
OVCAR-3 cells [8] = assay: LDH release assay, OVCAR-3; type: cell-based, human; settings: OVCAR-3, 24 h
Procedure: (§5) In order to evaluate the cytotoxic effect, the release of LDH into the culture medium using the In Vitro Toxicology Assay Kit, Lactic Dehydrogenase Based (TOX7; Sigma Aldrich) was assessed. SK-OV-3 and OVCAR-3 cells were plated and cultured in 96-well plates (Greiner Bio-One) at the initial density of 5 × 10^3 cells per well in 100 µL of culture medium. The density of the cells was determined in the same manner as in the SRB assay. After 24 h, the media were replaced with the working solutions, which contained appropriate test compounds at concentrations of 3 μM, 10 μM, 30 μM, and control medium (0.2% DMSO). Cells were exposed to the test substances for 24 h. The background control comprised wells without cells with only control medium. To determine the maximal LDH release (high control), half of the control cultures were treated with lysis buffer. Wells with untreated cells were used as the low control of the assay. LDH activity in media was assessed according to the manufacturer’s protocol. The absorbance was measured at wavelengths of 490 nm and 690 nm (background), and the percentage of released enzyme was calculated for cells growing in the presence of compounds according to the formula:Cytotoxicity [%] = [(AT − AL)/(AH − AL)] × 100 where AT is the absorbance of treated wells; AL is low control; and AH is high control (maximal LDH release).
(§6) Cytotoxicity was expressed as a percentage of the released LDH calculated according to the difference between the absorbance of the treated and low control wells divided by the difference between the absorbance of the high control and low control wells.

OVCAR-3 cells [9] = assay: DNA fragmentation assay (Cell Death Detection ELISA, cytoplasmic fraction), OVCAR-3; type: cell-based, human; settings: OVCAR-3, 24 h, 3, 10, 30 µM, among the betulin derivatives
Procedure: as §3, §4

SK-OV-3 cells [10] = assay: LDH release assay, SK-OV-3; type: cell-based, human; settings: SK-OV-3, 24 h, all concentrations (3, 10, 30 μM)
Procedure: as §5, §6

[11] = 72 h, SK-OV-3, 3 days treatment, SRB assay, read-out: IC50
[12] = 120 h, SK-OV-3, 5 days treatment, SRB assay, read-out: IC50
[13] = 72 h, OVCAR-3, 3 days treatment, SRB assay, read-out: IC50
[14] = 120 h, OVCAR-3, 5 days treatment, SRB assay, read-out: IC50
[15] = 18Co, 3 days treatment, Neg: negative in the concentration used
[16] = 18Co, 5 days treatment, Neg: negative in the concentration used

With `C#CC(=O)OC[C@]12CC[C@@H](C(=C)C)[C@@H]1[C@H]1CC[C@@H]3[C@@]4(C)CC[C@H](O)C(C)(C)[C@@H]4CC[C@@]3(C)[C@]1(C)CC2` [Compound 2, 28-O-propynoylbetulin] the IC50 (SK-OV-3 cells [1]; [11]) was 180 nM, the IC50 (SK-OV-3 cells [1]; [12]) was 200 nM and the “concentration at which antiproliferative activity (decrease in the number of cells) was evident” value (SK-OV-3 cells [1]) was at least 0.3 µM. The IC50 (OVCAR-3 cells [2]; [13]) was 160 nM, the IC50 (OVCAR-3 cells [2]; [14]) was 190 nM and the “concentration at which antiproliferative activity (decrease in the number of cells) was evident” value (OVCAR-3 cells [2]) was at least 0.3 µM. For the same compound, the IC50 [3, 15] was “Neg”, the IC50 [3, 16] was “Neg” and the “DNA fragmentation (enrichment factor, internucleosomal DNA fragments)” value (SK-OV-3 cells [4]) was “moderate increases”. For the same compound, the “mitochondrial membrane potential (TMRM fluorescence)” value (SK-OV-3 cells [5]) was “reduced the mitochondrial membrane potential”, the inhibition of proliferation [6] was “strong inhibition” and the inhibition of proliferation [7] was “strong inhibition”.

For `C#CC(=O)O[C@H]1CC[C@@]2(C)C(CC[C@]3(C)C2CCC2C4[C@H](C(=C)C)CC[C@]4(COP(=O)(OCC)OCC)CC[C@]23C)C1(C)C` (stereo partly shown) [Compound 4, 28-O-diethoxyphosphoryl-3-O-propynoylbetulin], the IC50 (SK-OV-3 cells [1]; SK-OV-3, 72 h) was 1080 nM, the IC50 (SK-OV-3 cells [1]; SK-OV-3, 120 h) was 1330 nM and the IC50 (OVCAR-3 cells [2]; OVCAR-3, 72 h) was 1880 nM. The IC50 (OVCAR-3 cells [2]; OVCAR-3, 120 h) was 1450 nM, the “concentration at which antiproliferative activity (decrease in the number of cells) was evident” value (OVCAR-3 cells [2]) was over 3 µM and the IC50 ([3]; 72 h) was 9470 nM. For the same compound, the IC50 ([3]; 120 h) was 23700 nM, the “cytotoxicity (released LDH), loss of cell membrane integrity” value (OVCAR-3 cells [8]; 10 μM and 30 μM) was “loss of cell membrane integrity was also confirmed” and the “DNA fragmentation (enrichment factor)” value (OVCAR-3 cells [9]) was “greatest effect”.

For `C#CC(=O)OC[C@]12CC[C@@H](C(=C)COP(=O)(OCC)OCC)C1C1CCC3[C@@]4(C)CC[C@H](O)C(C)(C)C4CC[C@@]3(C)[C@]1(C)CC2` (stereo partly shown) [Compound 5, 30-diethoxyphosphoryloxy-28-O-propynoylbetulin], the IC50 (SK-OV-3 cells [1]; SK-OV-3, 72 h) was 280 nM, the IC50 (SK-OV-3 cells [1]; SK-OV-3, 120 h) was 290 nM and the “concentration at which antiproliferative activity (decrease in the number of cells) was evident” value (SK-OV-3 cells [1]) was 1 µM. For the same compound, the IC50 (OVCAR-3 cells [2]; OVCAR-3, 72 h) was 540 nM, the IC50 (OVCAR-3 cells [2]; OVCAR-3, 120 h) was 600 nM and the “concentration at which antiproliferative activity (decrease in the number of cells) was evident” value (OVCAR-3 cells [2]) was 1 µM. The IC50 [3, 15] was “Neg”, the IC50 [3, 16] was “Neg” and the “cytotoxicity (released LDH)” value (SK-OV-3 cells [10]) was “strong cytotoxic effect”. The “cytotoxicity (released LDH)” value (OVCAR-3 cells [8]; all concentrations (3, 10, 30 μM)) was “significant cytotoxic activity”.

`CC(=O)O[C@H]1C(=O)[C@@]2(C)[C@H]([C@H](OC(=O)c3ccccc3)[C@]3(O)C[C@H](OC(=O)[C@H](O)[C@@H](NC(=O)c4ccccc4)c4ccccc4)C(C)=C1C3(C)C)[C@]1(OC(C)=O)CO[C@@H]1C[C@@H]2O` [PTX, Paclitaxel, reference compound] gave an IC50 (SK-OV-3 cells [1]; [11]) of 4.39 nM, an IC50 (SK-OV-3 cells [1]; [12]) of 5.65 nM and an IC50 (OVCAR-3 cells [2]; [13]) of 4.49 nM. The IC50 (OVCAR-3 cells [2]; [14]) was 2.97 nM, the IC50 [3, 15] was “Neg” and the IC50 ([3]; 120 h, 18Co, 5 days treatment, Neg: negative in the concentration used, read-out: IC50) was 14.8 nM.
